Among the data in ChEMBL document CHEMBL1127088, “Analogues of platelet activating factor. 8. Antagonists of PAF containing an aromatic ring linked to a pyridinium ring” (J Med Chem, 1993) are Survival and survival values, retold here.

Assay [1] addresses Platelet-activating factor receptor (Mus musculus) (UniProt Q62035). Description: Protection of PAF induced lethality in mouse after intraperitoneal dose of 1 mg/kg in saline 0.5 hr prior to an LD90 of PAF. It is filed as functional, organism-based. On the set-up: dose 1 mg/kg.
The test system of assay [2] is Oryctolagus cuniculus. Description: Protection of PAF induced lethality in rabbit after intraperitoneal dose of 1 mg/kg in saline 0.5 hr prior to an LD90 of PAF. It is filed as functional. Conditions: ip.

Platelet-activating factor receptor (Mus musculus), sequence (Q62035 whole entry): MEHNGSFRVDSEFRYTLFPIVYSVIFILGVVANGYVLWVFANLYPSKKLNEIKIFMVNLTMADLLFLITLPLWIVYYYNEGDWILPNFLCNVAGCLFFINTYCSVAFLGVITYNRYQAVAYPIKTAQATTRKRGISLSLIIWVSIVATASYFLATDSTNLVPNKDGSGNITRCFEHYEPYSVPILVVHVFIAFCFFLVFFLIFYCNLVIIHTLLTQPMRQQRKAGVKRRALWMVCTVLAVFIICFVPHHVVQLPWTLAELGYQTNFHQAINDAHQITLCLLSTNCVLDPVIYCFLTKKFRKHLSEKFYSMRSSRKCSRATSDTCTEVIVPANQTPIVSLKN

In assay [1], `CCCCCCCCCCCCCCOc1ccc(C(=O)N(Cc2cccc[n+]2C)C(C)=O)cc1OCCCCCCCCCCCCCC` came in with a Survival of 36%.
Still for that read-out and setting: the figure for `CCCCCCCCCCCCCCOc1ccc(C(=O)N(Cc2cccc[n+]2CCC)C(C)=O)cc1OC` is 47%; for `CCCCCCCCCCCCCCOc1ccc(C(=O)N(Cc2cc[n+](C)cc2)C(C)=O)cc1C(C)(C)C` it is 27%.
The compound `CCCCCCCCCCOc1ccc(C(=O)N(Cc2cccc[n+]2C)C(C)=O)cc1C(C)(C)C` displayed a Survival in assay [1] of 50%.
In the case of `CCCCCCCCCCCCCCOc1ccccc1CN(Cc1cccc[n+]1C)C(C)=O`, the Survival in assay [1] was 23%.
As to `CCCCCCCOc1ccc(C(=O)N(Cc2cccc[n+]2C)C(C)=O)cc1OCCCCCCC`, in assay [2], the survival at 1 mg/kg is 0%. In addition, the Survival in assay [1] was determined as 45%.
`CCCCCCCCCCCCCCOc1ccc(C(=O)N(Cc2cccc[n+]2C)C(C)=O)cc1` yielded a Survival in assay [1] of 27%.
Still for that read-out and setting: under `CCCCCCCCCCCCCCOc1cc(C(=O)N(Cc2cccc[n+]2C)C(C)=O)ccc1OC` stands 21%.
For `CCCCCCCCCCCCCCOc1cccc(OP(=O)([O-])Oc2cccc(C[n+]3csc(C)c3)c2)c1C(=O)OC`, the survival at 1 mg/kg in assay [2] amounted to 53%. Also, the Survival in assay [1] stood at 85%.
In turn, `CCCCCCCCCCCCCCCCCCNC(=O)Oc1ccc(C(=O)N(Cc2cccc[n+]2C)C(C)=O)cc1C(C)(C)C` gave a Survival in assay [1] of 29%.
In the case of `CCCCCCCCCCCCCCOc1ccc(CN(Cc2cc[n+](C)cc2)C(C)=O)cc1`, the survival at 1 mg/kg in assay [2] came to 0%.
In the case of `CCCCCCCCCCCCCCOc1ccc(C(=O)N(Cc2ccc[n+](C)c2)C(C)=O)cc1C(C)(C)C`, the Survival in assay [1] is 17%.
On the same count and under the same terms, the figure for `CCCCCCCCCCCCCCOc1ccc(COC(=O)N(Cc2cccc[n+]2C)C(C)=O)cc1` is 40%; for `CCCCCCCCCCCCCCOc1ccc(COC(=O)NCc2cccc[n+]2CC)cc1` it is 36%; for `CCCCCCCCCCCCCCOc1ccc(CN(Cc2cccc[n+]2CC)C(C)=O)cc1` it is 40%.
In assay [2], `CCCCCCCCCCCCCCOc1ccc(C(=O)N(Cc2cccc[n+]2C)C(C)=O)cc1C(C)(C)C` had a survival at 1 mg/kg of 100%. Further, in assay [1], the Survival stood at 64%.
In turn, `CCCCCCCCCCCCCCOc1ccc(C(=O)N(Cc2cccc[n+]2CC)C(C)=O)cc1OC` yielded a survival at 1 mg/kg in assay [2] of 33%. Besides, the Survival in assay [1] came to 58%.
As to `CCCCCCCCCCCCCCOc1ccc(CN(Cc2ccc[n+](C)c2)C(C)=O)cc1`, the Survival in assay [1] turned out to be 38%.
Turning to `CCCCCCCCCCCCCCOc1ccc(C(=O)N(Cc2cccc[n+]2Cc2ccccc2)C(C)=O)cc1`, the Survival in assay [1] was 0%.
Same read-out and setting: the figure for `CCCCCCCCCCCCCCOc1ccc(C(=O)NC(=O)c2ccc[n+](CCC)c2)cc1OC` is 42%; for `CCCCCCCCCCCCCCOc1ccc(CNC(=O)c2cccc[n+]2CC)cc1` it is 36%.
Compound `CCCCCCCCCCCCCCOc1ccc(C(=O)NC(=O)c2cc[n+](CCC)cc2)cc1OC` displayed a Survival in assay [1] of 33%.
`CCCCCCCCCCCCCCOc1ccc(C(=O)N(Cc2cccc[n+]2C)C(C)=O)cc1OC` registered a survival at 1 mg/kg in assay [2] of 75%. This compound also showed a Survival in assay [1] of 58%.
